Assay results published in patent US20190367448A1, “TREATMENT OF SLEEP-WAKE DISORDERS” (SK Biopharmaceuticals Co., Ltd., priority 2005, published 2019).

How the values were obtained:
[1] = tested on: Mice; test: Spontaneous Locomotor Activity in Mice and Rats model (mice); type: in vivo, mouse
[2] = tested on: male adult Sprague Dawley rats; test: Sleep-wake organization in rats, polysomnographic recording (EEG, EOG, EMG, body movement) for 16 hours after acute i.p. administration; type: in vivo, rat; conditions: rats; for Duration (min) Active wake / Duration (min) Deep sleep / Duration (min) Light sleep / Duration (min) Passive wake / Duration (min) REM sleep / Duration (min) intermediate stage / ISWS/TST (%) / Latency (min) ISWS / Latency (min) REM sleep / Latency (min) dSWS / REMS/TST (%) / Shifts (number) Shift from ISWS to AW / Shifts (number) Shift from ISWS to PW / Shifts (number) Shift from REMS to AW / Shifts (number) Shift from REMS to PW / Shifts (number) Shift from dSWS to AW / Shifts (number) Shift from dSWS to PW / Total sleep time TST / dSWS/TST (%): 16 hours recording period
[3] = tested on: Rats; test: Spontaneous Locomotor Activity in Mice and Rats model (rats); type: in vivo, rat
[4] = 3 mg/kg i.p., 16 hours recording
[5] = 10 mg/kg i.p., first 90 minutes of the recording period
[6] = 30 mg/kg i.p., 16 hours recording
[7] = 30 mg/kg i.p., vs vehicle, 16-h post-injection period

## NC(=O)OCC(N)Cc1ccccc1 [R228060, (R)-(beta-amino-benzenepropyl) carbamate]
[1]
  Spontaneous Locomotor Activity: stimulant or energizing effects
[2]; [4]
  increased drive to wakefulness from deep sleep: +15%
  increased drive to wakefulness from light sleep: +46%
[2]; 3 mg/kg i.p.
  Duration (min) Active wake: 290.0 min
  Duration (min) Deep sleep: 125.0 min
  Duration (min) Light sleep: 374.7 min
  Duration (min) Passive wake: 79.5 min
  Duration (min) REM sleep: 84.0 min
  Duration (min) intermediate stage: 2.9 min
  ISWS/TST (%): 64.3 ± 3.3%
  Latency (min) ISWS: 15.6 ± 4.1 min
  Latency (min) REM sleep: 66.0 ± 11.8 min
  Latency (min) dSWS: 42.0 ± 8.5 min
  REMS/TST (%): 14.4 ± 1.0%
  Shifts (number) Shift from ISWS to AW: 217.8 number
  Shifts (number) Shift from ISWS to PW: 78.1 number
  Shifts (number) Shift from REMS to AW: 78.0 number
  Shifts (number) Shift from REMS to PW: 3.7 number
  Shifts (number) Shift from dSWS to AW: 9.7 number
  Shifts (number) Shift from dSWS to PW: 6.6 number
  Total sleep time TST: 586.6 ± 20.0 min
  dSWS/TST (%): 20.8 ± 3.8%
[2]; 3 mg/kg, vs vehicle, 16 hours recording
  change in total time spent in light sleep: +26%
[2]; 10 mg/kg i.p., 16 hours recording
  increase in shifts from REM sleep towards active wakefulness: +16%
[2]; 10 mg/kg i.p.
  Duration (min) Active wake: 305.5 min
  Duration (min) Deep sleep: 104.0 min
  Duration (min) Light sleep: 366.6 min
  Duration (min) Passive wake: 73.4 min
  Duration (min) REM sleep: 102.3 min
  Duration (min) intermediate stage: 5.2 min
  ISWS/TST (%): 63.5 ± 2.7%
  Latency (min) ISWS: 30.4 ± 7.9 min
  Latency (min) REM sleep: 87.5 ± 14.5 min
  Latency (min) dSWS: 127.2 ± 67.1 min
  REMS/TST (%): 17.8 ± 1.0%
  Shifts (number) Shift from ISWS to AW: 204.5 number
  Shifts (number) Shift from ISWS to PW: 84.4 number
  Shifts (number) Shift from REMS to AW: 94.1 number
  Shifts (number) Shift from REMS to PW: 8.9 number
  Shifts (number) Shift from dSWS to AW: 4.2 number
  Shifts (number) Shift from dSWS to PW: 12.5 number
  Total sleep time TST: 578.1 ± 22.6 min
  dSWS/TST (%): 17.7 ± 3.1%
[2]; [5]
  deep sleep duration: significant decrease
  time spent in active wakefulness: increase
[2]; 10 mg/kg, vs vehicle, 16 hours recording
  change in total time spent in light sleep: +24%
[2]; 30 mg/kg
  overall profile of effects compared with amphetamine at 1 mg/kg (effect pattern, size and duration): remarkably similar
  rebound effect (increase in time spent in deep sleep), hours following administration: 4 to 10 h
[2]; 30 mg/kg i.p.
  mean durations of the sleep wake states (active wakefulness, passive wakefulness, light sleep, REM sleep): not modified
  Duration (min) Active wake: 371.6 min
  Duration (min) Deep sleep: 214.9 min
  Duration (min) Light sleep: 235.8 min
  Duration (min) Passive wake: 57.3 min
  Duration (min) REM sleep: 72.9 min
  Duration (min) intermediate stage: 4.0 min
  ISWS/TST (%): 44.9 ± 2.9%
  Latency (min) ISWS: 73.6 ± 25.7 min
  Latency (min) REM sleep: 251.8 ± 32.0 min
  Latency (min) dSWS: 174.6 ± 12.3 min
  REMS/TST (%): 13.7 ± 1.3 %
  Shifts (number) Shift from ISWS to AW: 221.9 number
  Shifts (number) Shift from ISWS to PW: 74.2 number
  Shifts (number) Shift from REMS to AW: 65.1 number
  Shifts (number) Shift from REMS to PW: 4.1 number
  Shifts (number) Shift from dSWS to AW: 8.7 number
  Shifts (number) Shift from dSWS to PW: 17.6 number
  Total sleep time TST: 527.0 ± 7.9 min
  dSWS/TST (%): 39.2 ± 2.9 %
[2]; [6]
  change in number of REM sleep epochs: −24%
  change in number of active wake epochs: +19%
  change in number of light sleep epochs: −23%
  change in number of passive wakefulness epochs: −30%
[2]; 30 mg/kg i.p., first 3 hours following the administration
  active wakefulness: significant enhancement
[2]; [7]
  change in total time spent in REM sleep: −25%
  change in total time spent in active wakefulness: +19%
  change in total time spent in light sleep: −20%
  change in total time spent in passive wakefulness: −29%
[2]; 30 mg/kg, first 3 to 4 hours after the administration
  active wakefulness at the expense of time spent in light sleep, deep sleep and REM sleep: strongly increased
[2]; 3 and 10 mg/kg
  changes in vigilance states: Minor changes
[2]; after intraperitoneal injection
  duration of central activity: at least 4 hours
[2]; i.p.
  peak in effect, time post administration: around 2 hours
[2]; i.p., time following administration
  onset of activity: ~30 min
[3]
  Spontaneous Locomotor Activity: stimulant or energizing effects
